How the values were obtained:
human thrombus = assay: Screening of thrombus-binding activity of phages by ELISA; settings: for dose-dependent thrombus-specific binding by ELISA: BSA binding as negative control, FIG. 1C/1D; for binding affinity to human thrombus (ELISA, absorption at 450 nm): screening of 72 phage clones from the fifth round of biopanning, FIG. 1B
Description: A human thrombus was isolated and collected from a cadaver about 20 years ago in a course of fresh cadaver dissection and partial thrombus was grounded to powder and then incubated with 2×10^11 phages in 1% BSA in PBS at 4° C. for 1 hour. After washing with PBS, the bound phages were eluted from the thrombus tissue and amplified using E. coli for subsequent rounds of selection. The eluted and amplified phages were titrated on lysogeny broth (LB) medium plates containing isopropyl β-D-1-thiogalactopyranoside (IPTG) and X-Gal (5-bromo-4-chloro-3-indolyl-D-galactoside). The biopanning steps described above were repeated five times before phage clones were randomly selected for thrombus ELISA screening.
The grinded human thrombus tissue or BSA in coating buffer was used to coat 96-well ELISA plates overnight. After blocking and washing, the selected phage clones were added and incubated for 1 hour at room temperature (RT). After washing with PBS, each well was probed with horseradish peroxidase (HRP)-conjugated mouse anti-M13 antibodies (1:2000 dilution) for 1 hour at RT. After repeating the wash step, the plates were developed with ELISA substrate solution. The reaction was terminated with 3N hydrochloric acid, and the absorbance of the colorimetric substrate was analyzed using a microplate reader at 450 nm.

induced thrombus = assay: In vivo infrared fluorescence imaging of HILYTE FLUOR 750-conjugated protein at the thrombus; design: species or system mice; settings: FIG. 5B
Description: Fifty micrograms of tPA or targeting peptide-tPA fusion and 4 nM HILYTE FLUOR™ 750 were mixed for 45 minutes at RT to promote conjugation. The solution was dialyzed with a 3.5-kDa-cut-off membrane overnight at 4° C. Time-course fluorescence measurements were made in mice with thrombi after intravenous injection of HILYTE FLUOR™ 750-labeled tPA or targeting peptide-tPA fusion protein. Fluorescence images were captured using an imaging system. Accumulation of HILYTE FLUOR™ 750 in the thrombus was quantified by subtracting background florescence intensity.
Fifty micrograms of thrombus affinity peptide-tPA was mixed with 4 nM HILYTE FLUOR™ 750 and incubated for 45 minutes at RT in the dark to promote the conjugation. Dialysis was performed with a 3.5-kDa-cut-off membrane overnight at 4° C. to remove excess dye. A time-course of infrared fluorescence images were acquired after intravenous injection of HILYTE FLUOR™ 750-conjugated fusion protein or tPA. Infrared fluorescence images of HILYTE FLUOR™ 750-conjugated protein were captured in living using an imaging system. Accumulation of HILYTE FLUOR™ 750 fluorescence signal in the induced thrombus was quantified and analyzed by software.

| Substance | dose-dependent thrombus-specific binding by ELISA (human thrombus) | binding affinity to human thrombus (ELISA, absorption at 450 nm) (human thrombus) | time after injection at which accumulation at the induced thrombus was seen (induced thrombus; dye-conjugated protein, i.v., mice with induced thrombus) | decrease of fluorescence intensity at the induced thrombus (induced thrombus; in 1 hour after i.v. injection) |
| --- | --- | --- | --- | --- |
| LQKNPFDLVQIL [PC66] | best thrombus-specific binding | relatively high binding affinity |  |  |
| FQNEWFHNFLHD [PC30] | best thrombus-specific binding | relatively high binding affinity |  |  |
| tPA: human recombinant tissue plasminogen activator without thrombus binding peptide, used as control |  |  | ≤ 5 min | 50% |
| TEANLSSWVFAR [PC39] | best thrombus-specific binding | relatively high binding affinity |  |  |

Reference: patent publication US20200299329A1, “SYNTHETIC PEPTIDES, PHARMACEUTICAL COMPOSITIONS COMPRISING THE SAME, AND USES THEREOF IN TREATING THROMBOEMBOLISM-RELATED DISEASES” (Academia Sinica, priority 2019, published 2020)
